Measured values taken from ChEMBL document CHEMBL4312011, “Synthesis and biological evaluation of triterpenoid thiazoles derived from betulonic acid, dihydrobetulonic acid, and ursonic acid” (Eur J Med Chem, 2020).
In brackets after ≈: the same amount, converted by molar mass. Activity calls are given as the source filed them. No cut-off for these calls is given here.

Columns and labels:
[1] = test system: CCRF-CEM; experiment: Cytotoxicity against human CCRF-CEM cells incubated for 72 hrs by MTS assay; assay type: functional, cell-based
[2] = test system: CCRF-CEM; experiment: Cell cycle arrest in human CCRF-CEM cells assessed as decrease in proportion of cells in G1 phase at 5 times IC50 measured after 24 hrs by propidium iodide/RNase staining based flow cytometry analysis; assay type: functional
[3] = test system: CCRF-CEM; experiment: Induction of apoptosis in human CCRF-CEM cells assessed as early apoptotic cells at 5 times IC50 concentration measured after 24 hrs by AnnexinV-FITC/propidium iodide staining based flow cytometry analysis (reference value: 2.8 %); assay type: functional
[4] = test system: CCRF-CEM; experiment: Induction of apoptosis in human CCRF-CEM cells assessed as activation of PARP cleavage at 5 times IC50 concentration measured after 24 hrs by Western blot analysis; assay type: functional, cell-based
[5] = Chemical stability of compound in PBS buffer assessed as parent compound remaining at 2 uM at pH 7.4 and 37 degC incubated for 30 mins by RF-MS analysis; assay type: physicochemical; conditions: read-out: Stability
[6] = test system: HCT-116; experiment: Cytotoxicity against human HCT116 cells incubated for 72 hrs by MTS assay; assay type: functional, cell-based; conditions: HCT-116, 72 h
[7] = test system: CCRF-CEM; experiment: Induction of apoptosis in human CCRF-CEM cells assessed as activation of procaspase 8 at 5 times IC50 concentration measured after 24 hrs by Western blot analysis; assay type: functional, cell-based
[8] = test system: A549; experiment: Cytotoxicity against human A549 cells incubated for 72 hrs by MTS assay; assay type: functional, cell-based; conditions: A549, 72 h
[9] = Microsomal stability in human liver microsomes assessed as parent compound remaining at 2 uM incubated for 30 mins by RF-MS analysis; assay type: ADME, Microsome; conditions: read-out: Stability
[10] = test system: BJ; experiment: Cytotoxicity against human BJ cells incubated for 72 hrs by MTS assay; assay type: cell-based
[11] = test system: MRC5; experiment: Cytotoxicity against human MRC5 cells incubated for 72 hrs by MTS assay; assay type: cell-based; conditions: MRC5, 72 h
[12] = test system: CCRF-CEM; experiment: Cell cycle arrest in human CCRF-CEM cells assessed as increase in G2/M phase accumulation at 5 times IC50 measured after 24 hrs by propidium iodide/RNase staining based flow cytometry analysis; assay type: functional
[13] = Microsomal stability in human liver microsomes assessed as parent compound remaining at 2 uM incubated for 15 mins by RF-MS analysis; assay type: ADME, Microsome; conditions: read-out: Stability
[14] = test system: K562; experiment: Cytotoxicity against human K562 cells incubated for 72 hrs by MTS assay; assay type: functional, cell-based; conditions: K562, 72 h
[15] = Cytotoxicity against human CEM-DNR-bulk cells incubated for 72 hrs by MTS assay; assay type: functional, cell-based
[16] = test system: CCRF-CEM; experiment: Induction of apoptosis in human CCRF-CEM cells assessed as increase in caspase 3/7 activity using Ac-DEVD-AMC as substrate at 5 times IC50 concentration measured after 24 hrs by fluorescence assay; assay type: functional, cell-based
[17] = Protein binding in human plasma at 10 uM measured after 4 hrs by rapid equilibrium dialysis; assay type: ADME, cell-free; conditions: read-out: PPB (converted)
[18] = Cytotoxicity against human K562-TAX cells incubated for 72 hrs by MTS assay; assay type: functional, cell-based
[19] = test system: CCRF-CEM; experiment: Induction of mitochondrial membrane depolarization in human CCRF-CEM cells at 5 times IC50 measured after 24 hrs by JC-1 staining based flow cytometry analysis (reference value: 8.4 %); assay type: functional
[20] = Stability in human plasma assessed as parent compound remaining at 2 uM incubated for 120 mins by RF-MS analysis; assay type: ADME, cell-free; conditions: read-out: Stability
[21] = test system: CCRF-CEM; experiment: Induction of apoptosis in human CCRF-CEM cells assessed as decrease in Bcl-2 expression at 5 times IC50 concentration measured after 24 hrs by Western blot analysis; assay type: functional, cell-based
[22] = test system: CCRF-CEM; experiment: Induction of apoptosis in human CCRF-CEM cells assessed as late apoptotic cells at 5 times IC50 concentration measured after 24 hrs by AnnexinV-FITC/propidium iodide staining based flow cytometry analysis (reference value: 0.1 %); assay type: functional
[23] = test system: CCRF-CEM; experiment: Cell cycle arrest in human CCRF-CEM cells assessed as decrease in proportion of cells in S phase at 5 times IC50 measured after 24 hrs by propidium iodide/RNase staining based flow cytometry analysis; assay type: functional
[24] = test system: U2OS; experiment: Cytotoxicity against human U2OS cells incubated for 72 hrs by MTS assay; assay type: functional, cell-based
[25] = test system: CCRF-CEM; experiment: Induction of apoptosis in human CCRF-CEM cells assessed as increase in BAX expression at 5 times IC50 concentration measured after 24 hrs by Western blot analysis; assay type: functional, cell-based
[26] = Permeability of compound in PBS buffer assessed as permeability coefficient at pH 7.4 incubated for 18 hrs by PAMPA based RF-MS analysis; assay type: ADME; conditions: pH 7.4, 18 h
[27] = Stability in human plasma assessed as parent compound remaining at 2 uM incubated for 30 mins by RF-MS analysis; assay type: ADME, cell-free; conditions: read-out: Stability
[28] = Solubility of compound in 10 % DMSO in water by HPLC-MS analysis; assay type: physicochemical
[29] = Stability in human plasma assessed as parent compound remaining at 2 uM incubated for 60 mins by RF-MS analysis; assay type: ADME, cell-free; conditions: read-out: Stability
[30] = test system: CCRF-CEM; experiment: Induction of apoptosis in human CCRF-CEM cells assessed as activation of caspase 3 at 5 times IC50 concentration measured after 24 hrs by Western blot analysis; assay type: functional, cell-based
[31] = test system: CCRF-CEM; experiment: Induction of apoptosis in human CCRF-CEM cells assessed as necrotic cells at 5 times IC50 concentration measured after 24 hrs by AnnexinV-FITC/propidium iodide staining based flow cytometry analysis (reference value: 0.1 %); assay type: functional
[32] = Stability in human plasma assessed as parent compound remaining at 2 uM incubated for 15 mins by RF-MS analysis; assay type: ADME, cell-free; conditions: read-out: Stability
[33] = test system: HCT-116; experiment: Cytotoxicity against p53 knockout human HCT116 cells incubated for 72 hrs by MTS assay; assay type: functional, cell-based; conditions: HCT-116, 72 h
[34] = Chemical stability of compound in PBS buffer assessed as parent compound remaining at 2 uM at pH 7.4 and 37 degC incubated for 15 mins by RF-MS analysis; assay type: physicochemical; conditions: read-out: Stability
[35] = Microsomal stability in human liver microsomes assessed as parent compound remaining at 2 uM incubated for 60 mins by RF-MS analysis; assay type: ADME, Microsome; conditions: read-out: Stability
[36] = Chemical stability of compound in PBS buffer assessed as parent compound remaining at 2 uM at pH 7.4 and 37 degC incubated for 60 mins by RF-MS analysis; assay type: physicochemical; conditions: read-out: Stability
[37] = test system: CCRF-CEM; experiment: Induction of apoptosis in human CCRF-CEM cells assessed as activation of caspase 7 at 5 times IC50 concentration measured after 24 hrs by Western blot analysis; assay type: functional, cell-based
[38] = Solubility of compound in 5 % DMSO in water by HPLC-MS analysis; assay type: physicochemical
[39] = Chemical stability of compound in PBS buffer assessed as parent compound remaining at 2 uM at pH 7.4 and 37 degC incubated for 120 mins by RF-MS analysis; assay type: physicochemical; conditions: read-out: Stability
[40] = test system: CCRF-CEM; experiment: Induction of apoptosis in human CCRF-CEM cells assessed as viable cells at 5 times IC50 concentration measured after 24 hrs by AnnexinV-FITC/propidium iodide staining based flow cytometry analysis (reference value: 97 %); assay type: functional
[41] = Solubility of compound in 0.5 % DMSO in water by HPLC-MS analysis; assay type: physicochemical

C[C@H]1[C@H](C)CC[C@]2(C(=O)O)CC[C@]3(C)C(=CC[C@@H]4[C@@]5(C)CC(Br)C(=O)C(C)(C)[C@@H]5CC[C@]43C)[C@H]12 (stereo partly specified)
IC50 [1]: 3.6 µM | Activity [2]: Active | Activity [3]: 16.5% | Activity [4]: Active | remaining at 0.5 h, 2 µM [5]: 99.2% | IC50 [6]: 28.4 µM | Activity [7]: Active | IC50 [8]: 27.6 µM | remaining at 0.5 h, 2 µM [9]: 80.7% | IC50 [10]: 49.5 µM | IC50 [11]: 29.3 µM | Activity [12]: Active | remaining at 0.25 h, 2 µM [13]: 93.4% | IC50 [14]: 38.8 µM | IC50 [15]: 21.8 µM | Activity [16]: Active | fraction unbound at 4 h, 10 µM [17]: 0.176 | IC50 [18]: 25.1 µM | Activity [19]: 36.3% | remaining at 2 h, 2 µM [20]: 85.5% | Activity [21]: Active | Activity [22]: 2.4% | Activity [23]: Active | IC50 [24]: 20.7 µM | Activity [25]: Active | log(permeability) [26]: -4.93 | remaining at 0.5 h, 2 µM [27]: 98.2% | solubility [28]: 83 µM (≈ 44.3 µg/mL) | remaining at 1 h, 2 µM [29]: 94.9% | Activity [30]: Active | Activity [31]: 0.4% | remaining at 0.25 h, 2 µM [32]: 98.5% | IC50 [33]: 29.8 µM | remaining at 0.25 h, 2 µM [34]: 99.6% | remaining at 1 h, 2 µM [35]: 66.2% | remaining at 1 h, 2 µM [36]: 99.1% | Activity [37]: Active | solubility [38]: 30 µM (≈ 16 µg/mL) | remaining at 2 h, 2 µM [39]: 88.5% | Activity [40]: 80.7% | solubility [41]: 24 µM (≈ 12.8 µg/mL)
